Values after ≈ are worked out from the molar mass of the structure shown.
How the values were obtained:
Assay type in all cases: functional
Escherichia coli [1] = assay: Antibacterial activity against Escherichia coli INSRA5776 isolates expressing CTX-M-14 and TEM-1B enzymes by agar dilution method
Escherichia coli [2] = assay: Antibacterial activity against CTX-M group 1 enzyme producing Escherichia coli isolates by broth microdilution method
Escherichia coli [3] = assay: Antibacterial activity against CTX-M group 1 enzyme producing Escherichia coli isolates assessed as percent nonsusceptible isolates by broth microdilution method
Escherichia coli [4] = assay: Antibacterial activity against CTX-M group 9 enzyme producing Escherichia coli isolates by broth microdilution method
Escherichia coli [5] = assay: Antibacterial activity against CTX-M group 9 enzyme producing Escherichia coli isolates assessed as percent nonsusceptible isolates by broth microdilution method
Escherichia coli [6] = assay: Antibacterial activity against Escherichia coli DH5 alpha isolates by agar dilution method
Escherichia coli [7] = assay: Antibacterial activity against Escherichia coli DH5 alpha-URA5776 isolates expressing CTX-M-14 enzyme by agar dilution method
Escherichia coli [8] = assay: Antibacterial activity against Escherichia coli INSRA5905 isolates expressing CTX-M-15 and TEM-1B enzymes by agar dilution method
Escherichia coli [9] = assay: Antibacterial activity against Escherichia coli DH5 alpha-URA5905 isolates expressing CTX-M-15 and TEM-1B enzymes by agar dilution method
Escherichia coli [10] = assay: Antibacterial activity against Escherichia coli INSRA5924 isolates expressing CTX-M-32 and TEM-1B enzymes by agar dilution method
Escherichia coli [11] = assay: Antibacterial activity against Escherichia coli DH5 alpha-URA5924 isolates expressing CTX-M-32 by agar dilution method
Escherichia coli [12] = assay: Antibacterial activity against CTX-M group 1 enzyme producing Escherichia coli isolates assessed as percent resistant isolates by broth microdilution method
Escherichia coli [13] = assay: Antibacterial activity against CTX-M group 9 enzyme producing Escherichia coli isolates assessed as percent resistant isolates by broth microdilution method

| Compound | MIC (Escherichia coli [1]) [µg/mL] | MIC50 (Escherichia coli [2]) [µg/mL] | MIC90 (Escherichia coli [2]) [µg/mL] | Activity (Escherichia coli [3]) [%] | MIC50 (Escherichia coli [4]) [µg/mL] | MIC90 (Escherichia coli [4]) [µg/mL] | Activity (Escherichia coli [5]) [%] | MIC (Escherichia coli [6]) [µg/mL] | MIC (Escherichia coli [7]) [µg/mL] | MIC (Escherichia coli [8]) [µg/mL] | MIC (Escherichia coli [9]) [µg/mL] | MIC (Escherichia coli [10]) [µg/mL] | MIC (Escherichia coli [11]) [µg/mL] | Activity (Escherichia coli [12]) [%] | Activity (Escherichia coli [13]) [%] |
| --- | --- | --- | --- | --- | --- | --- | --- | --- | --- | --- | --- | --- | --- | --- | --- |
| CO/N=C(\C(=O)N[C@@H]1C(=O)N2C(C(=O)O)=C(COC(N)=O)CS[C@H]12)c1ccco1 [CEFUROXIME] | > 256 | > 16 | > 16 | 100 | > 16 | > 16 | 100 | 4 (≈ 9.43 µM) | > 256 | > 256 | > 256 | > 256 | > 256 |  |  |
| CC1(C)S[C@@H]2[C@H](NC(=O)[C@H](N)c3ccccc3)C(=O)N2[C@H]1C(=O)O [AMPICILLIN] |  | > 16 | > 16 | 100 | > 16 | > 16 | 100 |  |  |  |  |  |  |  |  |
| CO/N=C(\C(=O)N[C@@H]1C(=O)N2C(C(=O)O)=C(COC(C)=O)CS[C@H]12)c1csc(N)n1 (stereo in doubt) [CEFOTAXIME] | 32 (≈ 70.3 µM) | > 32 | > 32 | 100 | > 32 | > 32 | 100 | 0.06 (≈ 0.132 µM) | 32 (≈ 70.3 µM) | 512 (≈ 1120 µM) | 512 (≈ 1120 µM) | 256 (≈ 562 µM) | 128 (≈ 281 µM) | 99 |  |
| CCN1CCN(C(=O)N[C@@H](C(=O)N[C@@H]2C(=O)N3C(C(=O)O)=C(CSc4nnnn4C)CS[C@H]23)c2ccc(O)cc2)C(=O)C1=O [CEFOPERAZONE] | 256 (≈ 396 µM) |  |  |  |  |  |  | ≤ 0.25 | 16 (≈ 24.8 µM) | > 512 | 256 (≈ 396 µM) | 256 (≈ 396 µM) | 64 (≈ 99.1 µM) |  |  |
| CC1(C)S[C@@H]2[C@H](NC(=O)C(C(=O)O)c3ccsc3)C(=O)N2[C@H]1C(=O)O (single isomer, unassigned) [TICARCILLIN] | > 4100 | > 64 | > 64 | 100 | > 64 | > 64 | 100 | 4 (≈ 10.4 µM) | > 4100 | > 4100 | > 4100 | > 4100 | > 4100 |  |  |
| CC1(C)S[C@@H]2[C@H](NC(=O)[C@H](N)c3ccc(O)cc3)C(=O)N2[C@H]1C(=O)O [AMOXICILLIN] | > 4100 |  |  |  |  |  |  | 8 (≈ 21.9 µM) | > 4100 | > 4100 | > 4100 | > 4100 | > 4100 |  |  |
| NC[C@H]1O[C@H](O[C@H]2[C@H](O)[C@@H](O[C@H]3O[C@H](CO)[C@@H](O)[C@H](N)[C@H]3O)[C@H](N)C[C@@H]2N)[C@H](N)C[C@@H]1O [TOBRAMYCIN] |  | > 8 | > 8 | 95 | ≤ 2 | > 8 | 22 |  |  |  |  |  |  | 94 |  |
| CCN1CCN(C(=O)N[C@@H](C(=O)N[C@@H]2C(=O)N3[C@@H]2SC(C)(C)[C@@H]3C(=O)O)c2ccccc2)C(=O)C1=O [PIPERACILLIN] | 256 (≈ 495 µM) | > 64 | > 64 | 100 | > 64 | > 64 | 100 | 2 (≈ 3.86 µM) | 256 (≈ 495 µM) | > 512 | 512 (≈ 989 µM) | > 512 | 512 (≈ 989 µM) |  |  |
| CC(=O)OCC1=C(C(=O)O)N2C(=O)[C@@H](NC(=O)Cc3cccs3)[C@H]2SC1 [CEPHALOTHIN] | > 1020 | > 16 | > 16 | 100 | > 16 | > 16 | 100 | 8 (≈ 20.2 µM) | 1020 (≈ 2580 µM) | > 1020 | > 1020 | > 1020 | > 1020 |  |  |
| C[C@@H](O)[C@H]1C(=O)N2C(C(=O)O)=C(SCCNC=N)C[C@H]12 [IMIPENEM ANHYDROUS] | ≤ 0.06 | ≤ 0.5 | ≤ 0.5 | 0 | ≤ 0.5 | ≤ 0.5 | 0 |  | 0.5 (≈ 1.67 µM) | 0.25 (≈ 0.835 µM) |  | 0.125 (≈ 0.418 µM) | 0.125 (≈ 0.418 µM) |  |  |
| CC1COc2c(N3CCN(C)CC3)c(F)cc3c(=O)c(C(=O)O)cn1c23 (configuration not stated) [OFLOXACIN] |  | > 4 | > 4 | 98 | ≤ 0.5 | > 4 | 33 |  |  |  |  |  |  |  |  |
| CC1(C)S[C@@H]2[C@H](/N=C\N3CCCCCC3)C(=O)N2[C@H]1C(=O)O | 1 (≈ 3.07 µM) |  |  |  |  |  |  | 0.125 (≈ 0.384 µM) | 0.5 (≈ 1.54 µM) | 2 (≈ 6.15 µM) | 2 (≈ 6.15 µM) | 2 (≈ 6.15 µM) | 0.5 (≈ 1.54 µM) |  |  |
| COc1cc(Cc2cnc(N)nc2N)cc(OC)c1OC [TRIMETHOPRIM] | 64 (≈ 220 µM) |  |  |  |  |  |  | ≤ 0.125 | > 64 | ≤ 0.125 | ≤ 0.125 | 0.25 (≈ 0.861 µM) | ≤ 0.125 |  |  |
| CO/N=C(\C(=O)N[C@@H]1C(=O)N2C(C(=O)[O-])=C(C[N+]3(C)CCCC3)CS[C@H]12)c1csc(N)n1 | 8 (≈ 16.6 µM) | > 16 | > 16 |  | > 16 | > 16 | 100 | 0.03 (≈ 0.0624 µM) | 2 (≈ 4.16 µM) |  | 8 (≈ 16.6 µM) | 16 (≈ 33.3 µM) | 4 (≈ 8.32 µM) |  | 78 |
| CC(C)(O/N=C(\C(=O)N[C@@H]1C(=O)N2C(C(=O)[O-])=C(C[n+]3ccccc3)CS[C@H]12)c1csc(N)n1)C(=O)O [CEFTAZIDIME] | 2 (≈ 3.66 µM) | > 16 | > 16 | 99 | 2 (≈ 3.66 µM) | > 16 | 11 | 0.25 (≈ 0.457 µM) | 1 (≈ 1.83 µM) | 128 (≈ 234 µM) | 64 (≈ 117 µM) | 16 (≈ 29.3 µM) | 16 (≈ 29.3 µM) | 98 | 11 |
| O=C(O)c1cn(C2CC2)c2cc(N3CCNCC3)c(F)cc2c1=O [CIPROFLOXACIN] | 256 (≈ 773 µM) | > 2 | > 2 | 98 | ≤ 0.5 | > 2 | 33 | ≤ 0.125 | ≤ 0.125 | 1020 (≈ 3090 µM) | ≤ 0.125 |  | ≤ 0.125 |  |  |
| CO/N=C(\C(=O)N[C@@H]1C(=O)N2C(C(=O)O)=C(CSc3nc(=O)c(O)nn3C)CS[C@H]12)c1csc(N)n1 (stereo in doubt) [CEFTRIAXONE] | 32 (≈ 57.7 µM) | > 32 | > 32 | 100 | > 32 | > 32 | 100 | 0.03 (≈ 0.0541 µM) | 32 (≈ 57.7 µM) | > 512 | 256 (≈ 462 µM) | 256 (≈ 462 µM) | 64 (≈ 115 µM) |  |  |
| C[C@@H](O)[C@H]1C(=O)N2C(C(=O)O)=C(S[C@@H]3CN[C@H](C(=O)N(C)C)C3)[C@H](C)[C@H]12 [MEROPENEM] |  | ≤ 1 | ≤ 1 | 0 | ≤ 1 | ≤ 1 | 0 |  |  |  |  |  |  |  |  |
| CO[C@@]1(NC(=O)Cc2cccs2)C(=O)N2C(C(=O)O)=C(COC(N)=O)CS[C@@H]21 [CEFOXITIN] | 32 (≈ 74.9 µM) | ≤ 4 | 8 (≈ 18.7 µM) | 5 | ≤ 4 | > 16 | 11 | 4 (≈ 9.36 µM) | 4 (≈ 9.36 µM) | 16 (≈ 37.4 µM) | 4 (≈ 9.36 µM) | 16 (≈ 37.4 µM) | 8 (≈ 18.7 µM) | 1 | 0 |
| C[C@H]1[C@H](NC(=O)/C(=N\OC(C)(C)C(=O)O)c2csc(N)n2)C(=O)N1S(=O)(=O)O [AZTREONAM] | 8 (≈ 18.4 µM) | > 16 | > 16 | 100 | 8 (≈ 18.4 µM) | > 16 | 22 |  | 8 (≈ 18.4 µM) | 128 (≈ 294 µM) | 64 (≈ 147 µM) | 64 (≈ 147 µM) | 64 (≈ 147 µM) | 100 | 11 |
| NCC[C@H](O)C(=O)N[C@@H]1C[C@H](N)[C@@H](O[C@H]2O[C@H](CN)[C@@H](O)[C@H](O)[C@H]2O)[C@H](O)[C@H]1O[C@H]1O[C@H](CO)[C@@H](O)[C@H](N)[C@H]1O [AMIKACIN] |  | ≤ 8 | 16 (≈ 27.3 µM) | 7 | ≤ 8 | 16 (≈ 27.3 µM) | 0 |  |  |  |  |  |  | 4 |  |
| Cc1nnc(SCC2=C(C(=O)O)N3C(=O)[C@@H](NC(=O)Cn4cnnn4)[C@H]3SC2)s1 [CEFAZOLIN] |  | > 16 | > 16 | 100 | > 16 | > 16 | 100 |  |  |  |  |  |  |  |  |
| CCn1cc(C(=O)O)c(=O)c2cc(F)c(N3CCNCC3)cc21 [NORFLOXACIN] |  | > 8 | > 8 | 98 | ≤ 2 | > 8 | 33 |  |  |  |  |  |  | 98 | 33 |

Reference: ChEMBL document CHEMBL1143815, “Spread of extended-spectrum beta-lactamase CTX-M-producing escherichia coli clinical isolates in community and nosocomial environments in Portugal” (2007)
